In US5134125A, “Nutrient composition” (Kyowa Hakko Kogyo Co., Ltd., priority 1989, dated 1992):
Where a SMILES comes first, the peptide text is derived from it.

What was measured:
[1] = Hydrolysis of dipeptides in human plasma; assay type: in vitro ADME; settings: 37° C., 30 minutes; for Residual Rate: 10 mM dipeptide
Experimental: Each of the dipeptides shown in Table 1 below was added to 0.75 ml of plasma collected and prepared from human to give a concentration of 10 mM, followed by reaction at 37° C. for 30 minutes.

[2] = Hydrolysis of dipeptides in mouse plasma; assay type: in vitro ADME, C3H/He mice; settings: 3.13 mM, 37° C.; for Residual Rate: mean of five mice
Experimental: Each of the dipeptides shown in Table 2 below was added to 0.05 ml of plasma collected and prepared from C3H/He mice (6 weeks of age, male, weighing 20 g) to give a concentration of 3.13 mM, followed by reaction at 37° C. for 2, 5, 10 and 20 minutes. Five mice were used for each test group, and the results are shown by the mean value.

[3] = Influence of administered dipeptides on renal glutamine level; assay type: in vivo, C3H/He mice; settings: mice, tail vein; for Concentration of Glutamine in kidney: 250 γmoles/kg body weight, kidneys excised after 20 minutes, mean ±SEM, five mice
Experimental: γ-L-Glutamine-L-glutamine and L-alany-L-glutamine were respectively administered to C3H/He mice (6 weeks of age, male, weighing 20 g) through the tail vein at a dose of 250 γmoles/kg body weight, and after 20 minutes, the kidneys were excised. The glutamine level in the organ was compared to that prior to the administration of the dipeptides. Five mice were used for each test group, and the results are shown by the mean ±SEM.

[4] = Change in concentration in blood of dipeptides administered to mice; assay type: in vivo, C3H/He mice; settings: tail vein, 250 μmoles/kg body weight, FIG. 1
Text: γ-L-Glutamyl-L-glutamine and L-alanyl-L-glutamine were respectively administered to C3H/He mice (6 weeks of age, male, weighing 20 g) through the tail vein at a dose of 250 μmoles/kg body weight, and blood was collected intermittently. Five mice were used for each test group, and the results are shown by the mean ±SEM.

[5] = Stability in solution under sterilizing conditions; assay type: physicochemical; settings: solution 10 mM, pH 6.5, 110° C. for 60 minutes
[6] = Storage stability test at 40° C. for 30 days; assay type: physicochemical; settings: in solution
[7] = tested on: γ-glutamyl cyclotransferase; settings: J. Biol. Chem., vol. 253, No. 6, p. 1799-1806 (1978); cited from earlier work
[8] = Stability in nutrient preparations under heat sterilization; assay type: physicochemical
[9] = target: T1, γ-GTP (γ-glutamyl transferase) (Sus scrofa, UniProt P20735); experiment: Hydrolysis of dipeptides by γ-GTP; assay type: biochemical; settings: 5 mM dipeptide, Tris-HCl buffer 50 mM pH 7.0, γ-GTP from swine kidney, 37° C., 120 minutes
T1 construct: γ-GTP prepared from swine kidney was added to the solution; from tissue; host or cells: swine kidney
T1 sequence (P20735 380-568 limits assumed): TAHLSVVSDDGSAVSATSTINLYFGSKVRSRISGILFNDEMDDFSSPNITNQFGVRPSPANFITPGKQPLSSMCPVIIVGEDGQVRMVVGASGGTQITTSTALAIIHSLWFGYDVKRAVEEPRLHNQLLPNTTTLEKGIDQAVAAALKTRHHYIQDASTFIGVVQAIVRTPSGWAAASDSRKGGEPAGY
T1 sequence (P20735 1-379 limits assumed): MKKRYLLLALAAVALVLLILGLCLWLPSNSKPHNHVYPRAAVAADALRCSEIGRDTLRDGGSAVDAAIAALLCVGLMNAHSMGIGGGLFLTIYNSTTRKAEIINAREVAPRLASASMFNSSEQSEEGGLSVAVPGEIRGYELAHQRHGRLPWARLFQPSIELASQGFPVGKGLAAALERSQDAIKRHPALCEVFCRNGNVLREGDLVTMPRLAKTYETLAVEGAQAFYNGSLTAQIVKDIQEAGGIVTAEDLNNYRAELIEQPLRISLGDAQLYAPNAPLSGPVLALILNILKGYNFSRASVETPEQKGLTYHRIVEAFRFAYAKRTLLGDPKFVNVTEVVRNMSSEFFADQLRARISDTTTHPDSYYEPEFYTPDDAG

γ-glutamyl transferase = settings: J. Biol. Chem., vol. 253, No. 6, p. 1799-1806 (1978); cited from earlier work

| SMILES | Residual Rate [1] | Residual Rate ([2]; 2 minutes) | Residual Rate ([2]; 5 minutes) | Residual Rate ([2]; 10 minutes) | Residual Rate ([2]; 20 minutes) | Disappearance of the dipeptide from blood [4] | Decomposition under sterilizing conditions [5] | Residual Rate after Sterilization [5] | Decomposition in storage stability test [6] | Residual Rate after Storage at 40° C. for 30 days [6] | Concentration of Glutamine in kidney [3] | Appearance (release) of glutamine in blood [4] | also measured |
| --- | --- | --- | --- | --- | --- | --- | --- | --- | --- | --- | --- | --- | --- |
| NCC(=O)N[C@@H](CCC(N)=O)C(=O)O [Glycyl-L-glutamine] (H-Gly-Gln-OH) | 84% |  |  |  |  |  |  |  |  |  |  |  |  |
| NC(=O)CC[C@H](N)C(=O)O [L-Glutamine, reference compound] |  |  |  |  |  |  | 60% | 40% | 29% | 71% |  |  |  |
| NC(=O)CC[C@H](NC(=O)CC[C@H](N)C(=O)O)C(=O)O [γ-L-Glutamyl-L-glutamine] | 99% | 100% | 100% | 100% | 100% | slow | not decomposed at all | 100% | not decomposed at all | 100% | 1.57 ± 0.12 μmole/g wet weight | slow | Hydrolysis in mouse plasma ([2]; up to 20 minutes): not hydrolyzed at all; Substrate for γ-glutamyl cyclotransferase [7]: effective substrate; Renal glutamine level ([3]; 20 minutes after administration, compared to prior to administration): significantly high renal glutamine level; Hydrolysis in human plasma ([1]; 10 mM): substantially free of hydrolysis; Stability under the sterilizing conditions ([8]; Example 2 jelly-like nutrient preparation, heated at 100° C. for 30 minutes): remained stable; Stability under the sterilizing conditions ([8]; Example 3 composition for oral nutrient supplementation, 110° C. for 60 minutes): remained stable; Hydrolysis by γ-GTP [9]: almost completely hydrolyzed; Substrate for γ-glutamyl transferase (γ-glutamyl transferase): effective substrate |

Now from value to compound, other results behind:

| Residual Rate [1] | Residual Rate ([2]; 2 minutes) | Residual Rate ([2]; 5 minutes) | Residual Rate ([2]; 10 minutes) | Residual Rate ([2]; 20 minutes) | Disappearance of the dipeptide from blood [4] | Decomposition under sterilizing conditions [5] | Residual Rate after Sterilization [5] | Decomposition in storage stability test [6] | Residual Rate after Storage at 40° C. for 30 days [6] | SMILES | Concentration of Glutamine in kidney [3] | Appearance (release) of glutamine in blood [4] | also measured |
| --- | --- | --- | --- | --- | --- | --- | --- | --- | --- | --- | --- | --- | --- |
| 74% | 87% | 62% | 24% | 11% | disappeared extremely rapidly |  |  |  |  | C[C@H](N)C(=O)N[C@@H](CCC(N)=O)C(=O)O [L-Alanyl-L-glutamine, reference compound] (H-Ala-Gln-OH) | 1.14 ± 0.09 μmole/g wet weight | rapid release of glutamine into the blood |  |
| 58% |  |  |  |  |  |  |  |  |  | NC(=O)CC[C@H](NC(=O)[C@@H](N)CC(=O)O)C(=O)O [L-Aspartyl-L-glutamine] (H-Asp-Gln-OH) |  |  |  |
